The record followed here is patent publication US5206014A, “Synthetic nonapeptide for use as an adjuvant” (Sclavo, S.p.A., priority 1987, dated 1993).

Common to all, as to type: in vivo
Experiment [1] has as its system primary antibody response to sheep's red corpuscles (SRBC), thymo-dependent antigen. As to the kind of experiment: Primary antibody response to SRBC, direct haemolysis plaque (PFC/spleen, IgM) in immunized mice. The procedure:
(§1) More particularly, the immunostimulating activity of peptides 163-171 TFA and 163-171.HCl were assayed in the antibody response to sheep's red blood compuscles, thymo-dependent antigens and in response to the polysaccharide of Streptococcus pneumoniae serotype 3 (SIII), a thymo-independent antigen having low immunogenicity by using the method of haemolysis of plaques described by Cunningham A. J. and Szenberg (Immunology, 14, 599, 1968).
The method consists in determining the number of cells which secrete antibodies specific to a given antigen. It consists in immunizing mice with the antigen to be assayed, placing lymphocytes obtained from the spleen of the immunized mice in contact with the same antigen, and finally in detecting the haemolysis plaques by adding complement.
Lysis zones (plaque-forming cells PFC) are observed at the place where the antigen-antibody reaction occurs, i.e. at each cell producing specific antibodies.
(§2) According to the invention, therefore, anti-body secreting cells of Classes IgM and IgG are determined by isolating lymphocytes from the spleen of mice immunized with SRBC and SIII antigens and treated by various methods and with various doses of peptide 163-171.TFA and peptide 163-171.HCl. To this end use has been made with identical results of inbred male C3H/HeNCr1BR mice and male and female C3H/HeJ mice weighing about 25 g. According to the invention, SRBC and SIII antigens previously dissolved in phosphate buffer (PBS) were inoculated in the mice, intravenously and intraperitoneally respectively, at a concentration of 1-2×10^8 SRBC/0.2 ml of PBS and 0.5 μg/0.5 ml of PBS. […]
The slides, sealed at the edges with paraffin, were then incubated in a thermostat at 37° C. for one hour. At the end of this period, the plaques of direct haemolysis were counted using a light-contrast visor, indicating the number of lymphocytes secreting antibodies (PFC). The thus-detected antibodies were in Class IgM, specific to the primary antibody response. […]

Experiment [2] deals with secondary antibody response to SRBC. As to the kind of experiment: Secondary antibody response to SRBC, total PFC/spleen (IgM+IgG) in immunized mice. The note with it: measured four days later, PBS control 29.992. How it is done:
The number of IgG class antibody-secreting cells characteristic of the secondary response is determined, before the complement is added, by adding a direct rabbit antiserum against mouse immunoglobulins.
According to the invention, therefore, anti-body secreting cells of Classes IgM and IgG are determined by isolating lymphocytes from the spleen of mice immunized with SRBC and SIII antigens and treated by various methods and with various doses of peptide 163-171.TFA and peptide 163-171.HCl. To this end use has been made with identical results of inbred male C3H/HeNCr1BR mice and male and female C3H/HeJ mice weighing about 25 g. According to the invention, SRBC and SIII antigens previously dissolved in phosphate buffer (PBS) were inoculated in the mice, intravenously and intraperitoneally respectively, at a concentration of 1-2×10^8 SRBC/0.2 ml of PBS and 0.5 μg/0.5 ml of PBS.
Mice immunized with SRBC as in Example 1 hereinbefore were intraperitoneally re-inoculated four days after the first inoculation with a similar dose of SRBC antigens and simultaneously with 12, 36, 100 mg/kg peptide 163-171.TFA and 500 - 1000 - 2000 U/kg of human IL-1-β.
The immunostimulating activity of the peptide on the secondary response to SRBC was also determined by administering the same doses of peptide and human IL-1β but only with the first inoculation.
Four days after the second dose the mice were killed and the number of PFC/spleen was determined as in Example 1, after combining the complement with a rabbit serum against mouse immunoglobulin at a final dilution of 1:200.
^a The mice intravenously inoculated with 1-2 × 10^8 SRBC o
day -10 and were given a similar dose on day 0 and simultaneously treated
intraperitoneally with PBS (control) or with various doses of peptide
163-171.TFA or hu rIL1β. The total number of antiSRBC PFC was
measured four days after the second inoculation of antigen.
The procedure was the same as in Example 4, the antigen being intravenously inoculated together with preparations of peptide 163-171.TFA and 163-171.HCl (from 100 pg/kg to 100 μg/kg in PBS).

The test system of experiment [3] is primary response to polysaccharide of Streptococcus pneumoniae serotype 3 (SIII). As to the kind of experiment: Primary antibody response to thymo-independent antigen SIII, PFC/spleen in immunized mice. Conditions: 500 U/kg intraperitoneally. How it is done:
as §1, §2
The adjuvant activity of peptide 163-171.TFA and of human IL-1-β were then determined as in Example 1 by using 25 μl of a 10% suspension of SIII antigen conjugated with SRBC by chromium chloride in PBS (Baker P. J. et al. Appl. Microbiol. 17, 422 (1969)). […]

Turning to “hu rIL-1β: human interleukin 1β (Genzyme Corporation Boston), comparator adjuvant”, the “Statistical significance versus control of PFC/spleen, primary response to SRBC (FIG. 1-B)” value in experiment [1] (4000 U/kg intraperitoneally) is recorded as “non-significant”. Also, the “Effect on number of plaques/spleen, primary response to SRBC (FIGS. 1A, 1B)” value in experiment [1] (intraperitoneal, peptide 12-100 mg/kg, IL-1β 500-4000 U/kg, depending on the dose) is “increase in the number of plaques/spleen”. The same substance displayed an Optimum intravenous dose in experiment [1] (intravenous, response not specified) of 0.0001 µg/kg. For the same substance, the “Average of total anti-SRBC PFC-spleen (95% confidence limits)” value in experiment [2] (500 U/kg intraperitoneally with second SRBC inoculum (day 0)) was 59.841 (45.604-78.343) PFC-spleen; in experiment [2] (1000 U/kg intraperitoneally with second SRBC inoculum (day 0)), 77.624 (61.502-97.499) PFC-spleen; in experiment [2] (2000 U/kg intraperitoneally with second SRBC inoculum (day 0)), 100.000 (84.139-118.850) PFC-spleen; in experiment [2] (4000 U/kg intraperitoneally with second SRBC inoculum (day 0)), 42.364 (29.853-59.979) PFC-spleen. Besides, the “Statistical significance versus control of PFC/spleen, primary response to SIII (FIG. 5)” value in experiment [3] was “non-significant”.
